Where two headings read alike, the source gives them in different places.
How the values were obtained:
endogenous Htt = test: Etoposide-induced Htt proteolysis in MESC2.10 neurons, Western blotting with anti-Htt mAb 2166; format: cell-based, human; conditions: for effect on etoposide-induced Htt proteolysis: pre-incubation 1 hr prior to 10 μM etoposide, sodium salicylate 5 mg/ml, caspase inhibitors 20 μM
Source text: Extracts were examined for Htt by Western blotting. […] Fold changes for full-length Htt levels were obtained by measuring the band intensity in each lane, normalized to tubulin and compared to non-treated control.
EGFP-lentivirus was used a control (C). […] Second and third panels show staining for Bcl-xL and pro-caspase-3, respectively. IKKγ levels were used as a loading control.
(§1) Neurons were harvested and separated into cytoplasmic and nuclear fractions using the NE-PER kit (PIERCE) according to instructions. For most experiments, ˜120 μg of lysate were used for SDS-PAGE and Western blotting with the indicated antibodies. Reactive bands in Western blots were detected by enhanced chemiluminescence (ECL) using a gel documentation system.

Htt = test: γ-irradiation-induced Htt cleavage in MESC2.10 neurons; format: cell-based, human; conditions: 5 Gy, 6 hours; sodium salicylate 5 mg/ml 1 hour prior to irradiation
Protocol: Cells were irradiated with 5 Gy and further incubated for the indicated time. Sodium salicylate (NaSal, lane 5) was added at a concentration of 5 mg/ml 1 hour prior to irradiation and incubated for 6 hours. […] Lanes 7 and 8 represent MESC2.10 neurons transduced with an IKKβ shRNA lentivirus (FIG. 4A) and irradiated with 5 Gy and incubated for 6 hours. […] Tubulin was used as a loading control
To confirm that Htt cleavage is induced by DNA damage and not other, secondary effects of etopoisde, we examined whether DNA damage induced by γ-irradiation of neurons could have a similar effect on Htt cleavage. […] The difference may be due to rapid induction of double stranded DNA breaks by irradiation.

caspase-3 [1] = format: cell-based, human; conditions: etoposide 6 hrs; DEVD-p-nitroanaline substrate; sodium salicylate 5 mg/ml 1 hour prior
caspase-6 [2] = format: cell-based, human; conditions: etoposide 6 hrs; VEID-p-nitroanaline substrate; sodium salicylate 5 mg/ml 1 hour prior
Bcl-xL [3] = test: Bcl-xL level in extracts of MESC2.10 neurons, Western blotting; format: cell-based, human
Source text: FIG. 6A is a western blot showing the expression of Bcl-XL. Extracts of control and etoposide-treated MESC2.10 neurons were examined for Bcl-xL by Western blotting. […] Fold changes were normalized to the intensity of loading control, and compared to that of untreated control neurons (lane 5).

Bcl-xL [4] = conditions: Hdh^Q111/Q111 neurons; NaSal 5 mg/ml 1 hour prior to 10 μM etoposide
Protocol: as §1

recombinant IKKβ = recombinant IKKβ (Homo sapiens, UniProt O14920); conditions: full-length Bcl-xL, 32P-γ-ATP, 30 min at 30° C.
Protocol: Active recombinant IKKα or IKKβ were tested for the ability to phosphorylate Bcl-xL. The kinase assay was performed using recombinant Bcl-xL as a substrate. Products were visualized by autoradiography. IκBα was used as a positive control substrate for IKKα.
(§2) To determine IKKα activity, lyastes were first depleted of IKKβ complexes using 4 μg of anti-IKKγ and anti-IKKβ antibodies coupled to protein G. The depleted lysates were used to isolate IKKα complexes with 2 μg of anti-IKKα antibody. GST-IκBα was used as a substrate to measure kinase activity. To examine whether IKKs phosphorylate Bcl-xL, 0.5 μg of either IKKα or IKKβ were incubated with 1 μg of full-length Bcl-xL in the presence of 32P-γ-ATP for 30 min at 30° C. GST protein was used as a negative control. All kinase products were examined by SDS-PAGE and autoradiography.
The possibility that activated IKKβ phosphorylates Bcl-xL was tested. To avoid contamination with other neuronal kinases that may co-immunoprecipitate with IKKβ, recombinant IKKs were used for in vitro kinase assays with Bcl-xL as the substrate.

IKKα [5] = test: IKKα kinase assay on IKKα complexes devoid of IKKβ from MESC2.10 neurons; format: cell-based, human; conditions: longer treatment with 10 μM etoposide
Protocol: as §2
To determine whether DNA damage influences IKKα activity, IKKα complexes devoid of IKKβ was obtained. Neuronal extracts were depleted by prior incubation with anti-IKKγ and anti-IKKβ antibodies, and IKKα complexes were subsequently immunoprecipitated.

caspase-3 [6] = target: T1, caspase-3 (Homo sapiens, UniProt P42574); format: cell-based; conditions: MESC2.10 neurons, 6 hrs of etoposide treatment, western blot
T1 construct: Fifty μg of each lysate was incubated with either caspase-3 substrate (DEVD conjugated to p-nitroanaline); endogenous in cells; host or cells: differentiated MESC2.10 human neurons (lysates)
T1 sequence (P42574 1-277): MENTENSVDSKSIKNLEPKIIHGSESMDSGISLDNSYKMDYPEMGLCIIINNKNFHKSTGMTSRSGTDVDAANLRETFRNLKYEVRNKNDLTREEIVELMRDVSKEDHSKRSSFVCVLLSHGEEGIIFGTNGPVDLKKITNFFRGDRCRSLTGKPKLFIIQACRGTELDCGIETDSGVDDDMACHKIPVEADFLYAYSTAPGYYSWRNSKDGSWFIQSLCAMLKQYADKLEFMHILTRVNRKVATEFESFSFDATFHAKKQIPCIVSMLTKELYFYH

caspase-6 [7] = target: T2, caspase-6 (Homo sapiens, UniProt P55212); format: cell-based; conditions: MESC2.10 neurons, 6 hrs of etoposide treatment, western blot
T2 construct: endogenous in cells; host or cells: differentiated MESC2.10 human neurons (lysates)
T2 sequence (P55212 1-293): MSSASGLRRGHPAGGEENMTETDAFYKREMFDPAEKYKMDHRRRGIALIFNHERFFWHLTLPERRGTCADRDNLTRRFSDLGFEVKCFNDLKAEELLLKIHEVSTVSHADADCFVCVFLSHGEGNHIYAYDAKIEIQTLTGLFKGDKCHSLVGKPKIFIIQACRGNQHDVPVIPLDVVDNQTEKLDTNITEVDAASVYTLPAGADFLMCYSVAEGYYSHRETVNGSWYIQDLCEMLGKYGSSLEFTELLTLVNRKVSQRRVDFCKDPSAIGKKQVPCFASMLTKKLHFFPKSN

[8] = tested on: full-length, mutant Htt protein; test: Etoposide-induced proteolysis of mutant Htt in striatal Hdh^Q111/Q111 neurons; format: cell-based, mouse; conditions: 10 μM etoposide for 6 hours
Source text: Processing of samples was as described in FIG. 3A. […] IKKγ was used as loading control.

p65 NF-κB = p65 NF-κB binding to consensus DNA oligonucleotides, nuclear extracts of MESC2.10 neurons; format: cell-based, human; conditions: etoposide
Protocol: Lanes 1-4 show p65 binding from nuclear extracts of control and lanes 5-8 show p65 binding from neurons transduced with a lentivirus expressing IKKα (FIG. 3C).
Wells with mutated NF-κB DNA oligonucleotides were used to ensure specificity of the binding (column 4).
Nuclear extracts for control or etoposide-treated MESC2.10 neurons were obtained using the cell fractionation kit from pierce according to the instructions provided. Fifty μg of each nuclear extract was incubated for an hour at room temperature on 96 well plates coated with consensus NF-κB oligonucleotides (p65 or p52). Mutated NF-κB oligonucleotides were used to confirm binding specificity. For competition assays, nuclear extracts were pre-incubated with NF-κB oligonucleotides for 1 hour on ice and then added to the coated wells. After washing, each well was incubated with anti-p65 or anti-p52 antibodies for 30 min at 37° C. Wells were washed, followed by incubation with a secondary antibody conjugated to HRP. TMB (3,3′,5,5′-tetramethylbenzidine) was added for 10 min. Binding was measured in a microplate reader at 655 nm.

p53 = test: Nuclear p53 in MESC2.10 neurons, western blotting; format: cell-based, human; conditions: etoposide
Source text: Nuclear extracts from MESC2.10 neurons were examined for the presence p53 by western blotting. Lanes 1-4 are nuclear extracts from MESC2.10 neurons with EGFP and lanes 5-8 are from neurons that were transduced with IKKα lentiviruses (FIG. 3C). Staining with anti-lamin B1 was used to ensure equal loading (bottom panel).

MESC2.10 neurons = test: BrdU incorporation (cell cycle activation) in MESC2.10 neurons; format: cell-based, human; conditions: Day 6 differentiated neurons, 10 μM etoposide 4 hours, BrdU 1 mM
Protocol: BrdU incorporation was detected described in M&M. Image was captured with a confocal microscope.
BrdU (1 mM) was added and incubated for additional 2 hours. Cells were fixed in 5% paraformaldehyde followed by permeabilization in 70% methanol in PBS at −20° C. overnight. To denature chromatin, coverslips were immersed in 2 N HCl for 30 minutes at 37° C. and neutralized in 0.1 M borate buffer (pH 8.5) by washing 2 times for 5 minutes. To detect BrdU incorporation, coverslips were incubated with Rat-anti-BrdU (1:200). Anti-Tuj-1 (1:1000) was used to stain neurons. Goat anti rat conjugated to rhodamine and goat anti-mouse conjugated to FITC (1:500) were used as secondary. Pictures were captured with a confocal microscope.

IKKα [9] = test: IKKα protein level in MESC2.10 neurons, western blot; format: cell-based, human
Source text: Lysates were first treated with a combination of anti-IKKβ and IKKγ antibodies coupled to agarose beads to deplete IKKγ/IKKβ/IKKα complex. […] Fold changes of IKK activity were quantified by measuring the band intensity using Image J, and compared to non-treated neurons.
FIG. 3C is a western blot showing IKKα levels in the control and IKKα-expressing neurons. MESC2.10 neuroblasts were transduced with an IKKα recombinant lentivirus and differentiated as described below. EGFP lentivirus was used as a control.
IKKα was cloned into the lentiviral FUGW vector under the control of a ubiquitin promoter. An EGFP-lentivirus was used as a control. The Bcl-xL cDNA was cloned from MESC2.10 neurons by RT-PCR using standard procedures and its identity confirmed by sequencing. The cDNA was subsequently inserted into FUGW lentiviral vector. The shRNAs for IKKβ were cloned in a lentiviral backbone. Lentiviruses were produced by transfection of 293 cells using calcium phosphate precipitation. Supernatants of virus-producing cells were harvested 48 hr post-transfection and concentrated on Amicon Ultra columns. An EGFP virus was used as a control to monitor viral titer. A multiplicity of infection of 4:1 was used to infect MESC2.10 neuroblasts. Expression of IKKα, Bcl-xL and reduction of IKKβ were determined by Western blotting.

IKKβ = target: T3, IKKβ (Homo sapiens, UniProt O14920); conditions: cited from earlier work
T3 sequence (O14920 1-756): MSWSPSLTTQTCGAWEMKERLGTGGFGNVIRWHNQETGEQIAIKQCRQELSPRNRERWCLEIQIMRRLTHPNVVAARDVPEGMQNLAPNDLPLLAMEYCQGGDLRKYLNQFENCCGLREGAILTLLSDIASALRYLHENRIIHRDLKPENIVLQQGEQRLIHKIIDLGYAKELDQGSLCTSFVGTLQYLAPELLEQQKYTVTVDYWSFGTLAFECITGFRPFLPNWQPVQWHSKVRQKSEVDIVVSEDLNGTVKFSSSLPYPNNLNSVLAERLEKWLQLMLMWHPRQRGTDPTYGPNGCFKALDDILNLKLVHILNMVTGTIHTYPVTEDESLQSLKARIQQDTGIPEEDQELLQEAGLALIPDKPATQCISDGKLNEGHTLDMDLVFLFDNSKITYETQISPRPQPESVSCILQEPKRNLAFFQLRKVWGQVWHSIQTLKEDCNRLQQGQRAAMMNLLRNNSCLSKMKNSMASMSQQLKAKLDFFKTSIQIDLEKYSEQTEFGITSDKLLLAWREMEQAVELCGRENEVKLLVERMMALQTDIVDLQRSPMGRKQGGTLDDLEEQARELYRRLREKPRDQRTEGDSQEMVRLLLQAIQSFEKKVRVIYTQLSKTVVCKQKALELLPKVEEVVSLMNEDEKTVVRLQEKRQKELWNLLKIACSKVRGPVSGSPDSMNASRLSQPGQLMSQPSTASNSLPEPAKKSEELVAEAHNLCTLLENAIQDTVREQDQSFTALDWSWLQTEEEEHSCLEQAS

IKKα [10] = test: Activation of IKKα in MESC2.10 neurons expressing Flag-tagged IKKα, immune kinase assay; format: cell-based, human; conditions: neurons starved for growth factors 8 hours; IGF-1 20 ng/ml, netrin 100 ng/ml
Protocol: IGF-1 was added at 20 ng/ml for the indicated time.
Netrin was added at 100 ng/ml for the indicated time.
The ability of a molecule to increase IKKα activation can be measured using assays that are well known in the art. For example and without limitation, IKKα activators can be identified using immune kinase assays and gene reporter assay. In an example of immune kinase assays, MESC2.10 neurons engineered to express a Flag-tagged IKKα are starved for growth factors for 8 hours. Candidate IKKα activators are added, respectively, to the starved MESC2.10 neurons for desired period of time. Neurons are harvested and cytoplasmic extracts are used to immunoprecipitate IKKα using agarose beads coupled to anti-Flag antibody. Complexes are assayed for the ability to phosphorylate a recombinant substrate GST-IκBα in the presence of radioactive […]. Products are examined by SDS-PAGE followed by autoradiography.
MESC2.10 neurons engineered to express a Flag-tagged IKKα were starved for growth factors for 8 hours. 20 ng/ml insulin-like growth factor-1 (IGF-1) and 100 ng/ml netrin were added, respectively, to the starved MESC2.10 neurons for the indicated time. […] Fold changes of IKK activity were quantified by measuring the band intensity using Image J, and compared to non-treated neurons.

## Ac-VEID-aldehyde
Endogenous Htt
  effect on etoposide-induced Htt proteolysis: no significant effect

## Ac-DEVD-CHO
Endogenous Htt
  effect on etoposide-induced Htt proteolysis: reduced Htt proteolysis

## O=C([O-])c1ccccc1O.[Na+] [sodium salicylate]
Endogenous Htt
  effect on etoposide-induced Htt proteolysis: blocks etoposide-induced Htt proteolysis
Htt
  effect on Htt cleavage induced by γ-irradiation: blocked Htt cleavage
caspase-3 [1]
  caspase-3 activity in neuronal extracts: lowered the etoposide-induced activation of caspases
caspase-6 [2]
  caspase-6 activity in neuronal extracts: lowered the etoposide-induced activation of caspases
Bcl-xL [3]; MESC2.10 neurons pre-treated or transduced, then etoposide
  effect on etoposide-induced reduction of Bcl-xL: did not affect Bcl-xL
Bcl-xL [4]
  effect on etoposide-induced reduction of Bcl-xL: prevented
Recombinant IKKβ
  phosphorylation of Bcl-xL by IKKβ: prevented the reaction

## COc1cc([C@@H]2c3cc4c(cc3[C@@H](O[C@@H]3O[C@@H]5CO[C@@H](C)O[C@H]5[C@H](O)[C@H]3O)[C@H]3COC(=O)[C@H]23)OCO4)cc(OC)c1O [etoposide]
IKKα [5]
  IKKα kinase activity after etoposide treatment: reduces IKKα activity
Endogenous Htt; MESC2.10 neurons, 10 μM etoposide, early time points
  increase of the level of endogenous, full-length Htt: ~4 fold
Endogenous Htt; MESC2.10 neurons, etoposide
  time required for maximal Htt proteolysis: ~6 h
Endogenous Htt; MESC2.10 neurons, longer exposure to 10 μM etoposide
  proteolysis of endogenous Htt caused by the agent: induces proteolysis of endogenous Htt
caspase-3 [6]
  procaspase-3 level / activation: reduced
caspase-3 [1]
  caspase-3 activity in neuronal extracts: elevated
caspase-6 [7]
  procaspase-6 level / activation: reduced
caspase-6 [2]
  caspase-6 activity in neuronal extracts: elevated
Bcl-xL [3]; MESC2.10 neurons, etoposide 6 hours
  level of intact Bcl-xL after etoposide: reduced
[8]
  cleavage of full-length mutant Htt caused by the agent: promoted cleavage of full-length, mutant Htt protein
p65 NF-κB
  p65 NF-κB DNA binding activity: activated p65 NF-κB DNA binding
p53
  nuclear p53: accumulates in the nucleus
MESC2.10 neurons
  cell cycle activation measured by BrdU incorporation: promotes cell cycle activation
IKKα [9]
  level of IKKα protein after etoposide treatment: decrease

## arsenite
IKKβ
  IKKβ activation: potently inhibited IKKβ activation

## IGF-1: insulin-like growth factor-1, IKKα activator
IKKα [10]
  activation of IKKα: activates IKKα
